Reference: ChEMBL document CHEMBL5661973, “BI 2536, a potent and selective inhibitor of polo-like kinase 1, inhibits tumor growth in vivo” (Curr Biol, 2007)
Active and inactive are the calls of the source. The rule behind the calls is not given here.

Columns and labels:
Mus musculus = species: Mus musculus; experiment: Inhibition of mouse Plk1
A549 = experiment: Antitumor activity against human A549 cells xenografted female BomTac:NMRI-Foxn1nu mouse assessed as T/C at 50 mg/kg, iv twice per week administrated for 2 consecutive days relative to control; format: functional; conditions: time 4 day
[1] = biological target: RAF proto-oncogene serine/threonine-protein kinase (Homo sapiens, UniProt P04049); experiment: Inhibition of C-RAF (unknown origin)
[2] = biological target: Serine/threonine-protein kinase Sgk1 (Homo sapiens, UniProt O00141); experiment: Inhibition of SGK (unknown origin)
HeLa [3] = experiment: Antimitotic activity against human HeLa cells assessed as DNA breakdown at 60 nM incubated after 48 hrs by flow cytometric analysis; format: functional, cell-based
[4] = Toxicity in against human HCT-116 cells xenografted female BomTac:NMRI-Foxn1nu mouse assessed as body weight change at 40 mg/kg, iv once per week administrated for 2 consecutive days; format: organism-based; conditions: in vivo, 48 h, time 2 day
[5] = biological target: T1, Dual specificity mitogen-activated protein kinase kinase 1 (Homo sapiens, UniProt Q02750); experiment: Inhibition of MKK1 (unknown origin)
[6] = biological target: Serine/threonine-protein kinase PAK 2 (Homo sapiens, UniProt Q13177); experiment: Inhibition of PAK2 (unknown origin)
TERT-RPE1 [7] = experiment: Antimitotic activity against hTERT-RPE1 cells assessed as mitotic cell appearing typical polo phenotype at 100 nM by immunofluorescence analysis relative to control; format: functional, Homo sapiens
[8] = biological target: Phosphatidylinositol 4,5-bisphosphate 3-kinase catalytic subunit alpha isoform (Homo sapiens, UniProt P42336); experiment: Inhibition of PI3Ka (unknown origin)
TERT-RPE1 [9] = experiment: Antimitotic activity against hTERT-RPE1 cells assessed as remaining cell arrest at 100 nM by immunofluorescence analysis relative to control; format: functional, Homo sapiens
[10] = biological target: Mitogen-activated protein kinase 12 (Homo sapiens, UniProt P53778); experiment: Inhibition of p38gamma (unknown origin)
HeLa [11] = experiment: Antimitotic activity against human HeLa cells assessed as appearance and distribution of phenotypes at 50 nM incubated for 2 hrs by immunofluorescence analysis; format: functional, cell-based
BRO melanoma cell line = experiment: Antiproliferative activity against human BRO melanoma cell line assessed as inhibition in cell growth incubated for 72 hrs by Alamar Blue dye based fluorescence spectrophotometric analysis; format: functional
[12] = biological target: Serine/threonine-protein kinase B-raf (Homo sapiens, UniProt P15056); experiment: Inhibition of B-RAF (unknown origin)
[13] = biological target: RAC-beta serine/threonine-protein kinase (Homo sapiens, UniProt P31751); experiment: Inhibition of PKBbeta (unknown origin)
NCI-H460 [14] = experiment: Antitumor activity against human NCI-H460 cells xenografted female BomTac:NMRI-Foxn1nu mouse assessed as appearance of cell apoptosis at 60 mg/kg, iv after 47 hrs administration by MRI assay; format: functional, organism-based
HeLa [15] = experiment: Antimitotic activity against human HeLa cells assessed as cell arrest in G2/M phase at 60 nM incubated for 48 hrs by flow cytometric analysis; format: functional, cell-based
[16] = biological target: Platelet-derived growth factor receptor alpha (Homo sapiens, UniProt P16234); experiment: Inhibition of PDGFRa (unknown origin)
HeLa [17] = experiment: Antimitotic activity against human HeLa cells assessed as cell apoptosis at 60 nM incubated after 48 hrs by flow cytometric analysis; format: functional, cell-based
Ephrin type-A receptor 3 = Ephrin type-A receptor 3 (Homo sapiens, UniProt P29320); experiment: Inhibition of Hek (unknown origin)
[18] = biological target: Receptor tyrosine-protein kinase erbB-4 (Homo sapiens, UniProt Q15303); experiment: Inhibition of ErbB4 (unknown origin)
[19] = biological target: Mitogen-activated protein kinase 14 (Homo sapiens, UniProt Q16539); experiment: Inhibition of p38alpha (unknown origin)
HeLa [20] = experiment: Antimitotic activity against human HeLa cells assessed as change in S phase at 60 nM incubated for 48 hrs by flow cytometric analysis; format: functional, cell-based
HeLa [21] = experiment: Antimitotic activity against human HeLa cells assessed as DNA breakdown at 60 nM incubated after 24 hrs by flow cytometric analysis; format: functional, cell-based
[22] = Toxicity in against human HCT-116 cells xenografted female BomTac:NMRI-Foxn1nu mouse assessed as body weight change at 40 mg/kg, iv twice per week administrated for 2 consecutive days; format: organism-based; conditions: in vivo, 96 h, time 4 day
[23] = biological target: T1, Dual specificity mitogen-activated protein kinase kinase 1; experiment: Inhibition of MEK1 (unknown origin)
HCT-116 [24] = experiment: Antitumor activity against human HCT-116 cells xenografted female BomTac:NMRI-Foxn1nu mouse assessed as T/C at 40 mg/kg, iv once per week administrated for 2 consecutive days relative to control; format: functional; conditions: time 4 day
HeLa [25] = experiment: Antimitotic activity against human HeLa cells assessed as change in telophase at 25 nM incubated for 2 hrs by immunofluorescence analysis; format: functional, cell-based
NCI-H460 [26] = experiment: Antitumor activity against human NCI-H460 cells xenografted female BomTac:NMRI-Foxn1nu mouse assessed as increase in histone H3 phosphorylation at 60 mg/kg, iv after 24 hrs administration by immunohistochemical method; format: functional, organism-based
HeLa [27] = experiment: Antimitotic activity against human HeLa cells assessed as accumulation in cleaved PARP p85 fragment at 60 nM incubated after 24 hrs by westernblot analysis; format: functional, cell-based
NCI-H460 [28] = experiment: Antitumor activity against human NCI-H460 cells xenografted female BomTac:NMRI-Foxn1nu mouse assessed as increase in mitotic index at 60 mg/kg, iv after 24 hrs administration by immunohistochemical method; format: functional, organism-based
HeLa [29] = experiment: Antimitotic activity against human HeLa cells assessed as accumulation of mitotic cells with spindles at 25 nM incubated for 2 hrs by immunofluorescence analysis; format: functional, cell-based
[30] = biological target: Serine/threonine-protein kinase Nek6 (Homo sapiens, UniProt Q9HC98); experiment: Inhibition of Nek6 (unknown origin)
BXPC-3 = experiment: Antitumor activity against human BXPC-3 cells xenografted female BomTac:NMRI-Foxn1nu mouse assessed as T/C at 50 mg/kg, iv twice per week administrated for 2 consecutive days relative to control; format: functional; conditions: time 4 day
HCT-116 [31] = experiment: Antitumor activity against human HCT-116 cells xenografted female BomTac:NMRI-Foxn1nu mouse assessed as apparent diffusion coefficient of water at 50 mg/kg, iv administration and measured on day 4 by MRI assay; format: functional, organism-based; conditions: time 4.0 day
HeLa [32] = experiment: Antimitotic activity against human HeLa cells assessed as appearance of monopolar polo spindles at 100 to 1000 nM incubated for 2 hrs by immunofluorescence analysis; format: functional, cell-based; conditions: dose 100-1000 nM
HeLa [33] = experiment: Antimitotic activity against human HeLa cells assessed as accumulation in cleaved PARP p85 fragment at 60 nM incubated after 48 hrs by westernblot analysis; format: functional, cell-based
[34] = biological target: Platelet-derived growth factor receptor beta (Homo sapiens, UniProt P09619); experiment: Inhibition of PDGFRb (unknown origin)
Angiopoietin-1 receptor = Angiopoietin-1 receptor (Homo sapiens, UniProt Q02763); experiment: Inhibition of Tie2 (unknown origin)
HeLa [35] = experiment: Antimitotic activity against human HeLa cells assessed as cell apoptosis at 60 nM incubated after 24 hrs by flow cytometric analysis; format: functional, cell-based
HeLa [36] = experiment: Antimitotic activity against human HeLa cells assessed as cell cycle at 10 nM incubated for 2 hrs by immunofluorescence analysis; format: functional, cell-based
HCT-116 [37] = experiment: Antitumor activity against human HCT-116 cells xenografted female BomTac:NMRI-Foxn1nu mouse assessed as induction in tumor regression at 50 mg/kg, iv twice per week administrated for 2 consecutive days relative to control; format: functional, organism-based; conditions: time 4.0 day
[38] = biological target: Macrophage-stimulating protein receptor (Homo sapiens, UniProt Q04912); experiment: Inhibition of Ron (unknown origin)
[39] = biological target: Fibroblast growth factor receptor 3 (Homo sapiens, UniProt P22607); experiment: Inhibition of FGFR3 (unknown origin)
NCI-H460 [40] = experiment: Antitumor activity against human NCI-H460 cells xenografted female BomTac:NMRI-Foxn1nu mouse assessed as appearance of massive tumor cell at 60 mg/kg, iv after 48 hrs administration by TUNEL staining; format: functional, organism-based
[41] = biological target: Tyrosine-protein kinase CSK (Homo sapiens, UniProt P41240); experiment: Inhibition of CSK (unknown origin)
HCT-116 [42] = experiment: Antitumor activity against human HCT-116 cells xenografted female BomTac:NMRI-Foxn1nu mouse assessed as tumor suppression at 40 mg/kg, iv twice per week administrated for 2 consecutive days relative to control; format: functional; conditions: time 2 day
HeLa [43] = experiment: Antimitotic activity against human HeLa cells assessed as change in anaphase at 25 nM incubated for 2 hrs by immunofluorescence analysis; format: functional, cell-based
HeLa [44] = experiment: Antimitotic activity against human HeLa cells assessed as arrest in G2/M phase measuring by accumulation in 4N DNA content at 10 nM incubated for 24 hrs by flow cytometric analysis; format: functional, cell-based
[45] = biological target: Mitogen-activated protein kinase 8 (Homo sapiens, UniProt P45983); experiment: Inhibition of JNK1 (unknown origin)
[46] = biological target: Mitogen-activated protein kinase 11 (Homo sapiens, UniProt Q15759); experiment: Inhibition of p38beta (unknown origin)
[47] = biological target: Tyrosine-protein kinase ABL1 (Homo sapiens, UniProt P00519); experiment: Inhibition of Abl (unknown origin)
HeLa [48] = experiment: Antimitotic activity against human HeLa cells assessed as accumulation in depolymerization of microtubules in interphase cells at 2500 nM incubated for 2 hrs by immunostaining; format: functional, cell-based
HeLa [49] = experiment: Antimitotic activity against human HeLa cells assessed as monopolar asters at 100 to 2500 nM incubated for 2 hrs by immunofluorescence analysis; format: functional, cell-based; conditions: dose 100-2500 nM
HeLa S3 = experiment: Antiproliferative activity against human HeLa S3 cells assessed as inhibition in cell growth incubated for 72 hrs by Alamar Blue dye based fluorescence spectrophotometric analysis; format: functional; conditions: HeLa S3, 72 h
HeLa [50] = experiment: Antimitotic activity against human HeLa cells assessed as accumulation multipolar spindles at 100 to 2500 nM incubated for 2 hrs by immunofluorescence analysis; format: functional, cell-based; conditions: dose 100-2500 nM
HeLa [51] = experiment: Antimitotic activity against human HeLa cells assessed as centrosomal gamma tubulin recruitment at 100 to 2500 nM incubated for 2 hrs by immunofluorescence analysis; format: functional, cell-based; conditions: dose 100-2500 nM

T1 sequence (Q02750 whole entry): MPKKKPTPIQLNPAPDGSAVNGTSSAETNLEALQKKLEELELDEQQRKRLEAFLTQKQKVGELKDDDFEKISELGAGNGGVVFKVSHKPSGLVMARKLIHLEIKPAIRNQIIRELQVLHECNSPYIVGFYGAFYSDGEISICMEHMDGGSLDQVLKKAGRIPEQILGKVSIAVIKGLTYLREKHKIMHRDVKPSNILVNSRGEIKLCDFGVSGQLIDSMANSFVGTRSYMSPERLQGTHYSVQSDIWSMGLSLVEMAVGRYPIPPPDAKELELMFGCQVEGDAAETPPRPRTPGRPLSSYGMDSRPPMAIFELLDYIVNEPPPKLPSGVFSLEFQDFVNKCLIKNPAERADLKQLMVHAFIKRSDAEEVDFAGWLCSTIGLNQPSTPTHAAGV
Chain of Serine/threonine-protein kinase PAK 2 (Q13177 whole entry): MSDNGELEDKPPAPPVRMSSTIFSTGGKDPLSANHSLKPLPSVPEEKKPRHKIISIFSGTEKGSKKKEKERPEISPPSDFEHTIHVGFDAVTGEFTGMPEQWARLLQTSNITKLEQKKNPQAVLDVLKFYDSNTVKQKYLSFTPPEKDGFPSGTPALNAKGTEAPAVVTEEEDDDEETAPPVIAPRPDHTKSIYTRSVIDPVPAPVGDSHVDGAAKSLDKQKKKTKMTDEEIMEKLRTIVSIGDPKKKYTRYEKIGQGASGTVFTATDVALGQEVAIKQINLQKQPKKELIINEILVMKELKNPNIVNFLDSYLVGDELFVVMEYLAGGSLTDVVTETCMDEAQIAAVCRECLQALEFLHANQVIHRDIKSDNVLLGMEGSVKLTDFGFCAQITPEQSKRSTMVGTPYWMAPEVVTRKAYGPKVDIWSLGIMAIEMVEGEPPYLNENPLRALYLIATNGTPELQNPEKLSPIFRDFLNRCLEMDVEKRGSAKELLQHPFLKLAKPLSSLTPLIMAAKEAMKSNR
Chain of Tyrosine-protein kinase ABL1 (P00519 whole entry): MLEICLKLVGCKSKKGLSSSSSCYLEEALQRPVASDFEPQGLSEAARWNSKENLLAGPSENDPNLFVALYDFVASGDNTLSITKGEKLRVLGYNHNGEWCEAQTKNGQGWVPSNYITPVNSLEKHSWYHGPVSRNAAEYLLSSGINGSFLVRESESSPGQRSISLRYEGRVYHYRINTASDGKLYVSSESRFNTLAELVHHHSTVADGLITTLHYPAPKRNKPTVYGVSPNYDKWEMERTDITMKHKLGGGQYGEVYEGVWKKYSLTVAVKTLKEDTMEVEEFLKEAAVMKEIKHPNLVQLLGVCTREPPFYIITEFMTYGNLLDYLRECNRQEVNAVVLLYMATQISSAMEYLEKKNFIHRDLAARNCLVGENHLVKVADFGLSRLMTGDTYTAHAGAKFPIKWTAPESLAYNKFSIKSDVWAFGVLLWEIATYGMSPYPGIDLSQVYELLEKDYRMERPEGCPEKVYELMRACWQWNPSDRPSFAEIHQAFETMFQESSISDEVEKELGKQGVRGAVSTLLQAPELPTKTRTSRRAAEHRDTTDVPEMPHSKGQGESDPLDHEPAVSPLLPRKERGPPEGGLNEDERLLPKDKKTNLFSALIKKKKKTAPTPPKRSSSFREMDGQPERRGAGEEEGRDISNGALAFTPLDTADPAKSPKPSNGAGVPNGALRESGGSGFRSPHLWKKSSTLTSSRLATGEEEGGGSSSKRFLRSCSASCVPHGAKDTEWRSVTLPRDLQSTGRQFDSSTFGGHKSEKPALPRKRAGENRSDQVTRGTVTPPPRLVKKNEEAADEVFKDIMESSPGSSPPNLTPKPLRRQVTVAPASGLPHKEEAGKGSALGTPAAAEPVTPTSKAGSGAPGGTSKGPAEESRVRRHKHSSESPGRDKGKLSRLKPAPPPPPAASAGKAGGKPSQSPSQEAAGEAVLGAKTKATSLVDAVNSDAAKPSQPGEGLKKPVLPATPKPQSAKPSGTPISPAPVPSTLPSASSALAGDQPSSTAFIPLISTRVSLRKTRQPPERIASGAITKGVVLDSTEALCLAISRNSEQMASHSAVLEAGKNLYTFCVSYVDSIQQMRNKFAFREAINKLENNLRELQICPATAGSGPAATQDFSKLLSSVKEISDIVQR
Chain of RAC-beta serine/threonine-protein kinase (P31751 whole entry): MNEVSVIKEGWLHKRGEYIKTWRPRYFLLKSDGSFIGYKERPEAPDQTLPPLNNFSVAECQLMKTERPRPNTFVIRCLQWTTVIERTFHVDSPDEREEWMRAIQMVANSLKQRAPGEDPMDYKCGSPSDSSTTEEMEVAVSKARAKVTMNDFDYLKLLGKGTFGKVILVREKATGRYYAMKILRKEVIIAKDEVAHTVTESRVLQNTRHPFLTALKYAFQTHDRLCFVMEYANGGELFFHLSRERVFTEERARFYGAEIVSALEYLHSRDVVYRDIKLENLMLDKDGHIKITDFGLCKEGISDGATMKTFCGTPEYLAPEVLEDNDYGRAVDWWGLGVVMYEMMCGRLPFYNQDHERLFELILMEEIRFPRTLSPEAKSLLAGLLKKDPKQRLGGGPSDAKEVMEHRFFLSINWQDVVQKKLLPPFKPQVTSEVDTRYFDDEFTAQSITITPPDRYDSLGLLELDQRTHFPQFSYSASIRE
Chain of Fibroblast growth factor receptor 3 (P22607 whole entry): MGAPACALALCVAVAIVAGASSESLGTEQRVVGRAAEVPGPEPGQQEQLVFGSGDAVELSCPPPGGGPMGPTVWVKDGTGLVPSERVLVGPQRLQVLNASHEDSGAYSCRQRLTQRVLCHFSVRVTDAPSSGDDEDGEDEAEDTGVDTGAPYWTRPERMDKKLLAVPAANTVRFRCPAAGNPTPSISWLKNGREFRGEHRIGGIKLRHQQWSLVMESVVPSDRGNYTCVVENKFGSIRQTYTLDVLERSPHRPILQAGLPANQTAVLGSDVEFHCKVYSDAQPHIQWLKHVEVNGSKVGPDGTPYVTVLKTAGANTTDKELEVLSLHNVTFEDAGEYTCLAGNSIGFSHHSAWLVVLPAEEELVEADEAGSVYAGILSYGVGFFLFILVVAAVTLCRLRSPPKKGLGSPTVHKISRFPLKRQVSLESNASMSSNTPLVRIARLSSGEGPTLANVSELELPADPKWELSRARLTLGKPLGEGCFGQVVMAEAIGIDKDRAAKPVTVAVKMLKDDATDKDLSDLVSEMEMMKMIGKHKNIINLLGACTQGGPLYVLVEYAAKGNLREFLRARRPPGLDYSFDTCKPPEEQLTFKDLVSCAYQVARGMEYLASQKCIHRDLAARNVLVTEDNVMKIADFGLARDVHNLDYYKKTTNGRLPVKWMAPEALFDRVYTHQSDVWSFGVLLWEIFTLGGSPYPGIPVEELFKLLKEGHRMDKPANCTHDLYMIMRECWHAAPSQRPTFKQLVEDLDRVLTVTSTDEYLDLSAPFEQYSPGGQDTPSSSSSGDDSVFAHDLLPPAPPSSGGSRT
Chain of Angiopoietin-1 receptor (Q02763 whole entry): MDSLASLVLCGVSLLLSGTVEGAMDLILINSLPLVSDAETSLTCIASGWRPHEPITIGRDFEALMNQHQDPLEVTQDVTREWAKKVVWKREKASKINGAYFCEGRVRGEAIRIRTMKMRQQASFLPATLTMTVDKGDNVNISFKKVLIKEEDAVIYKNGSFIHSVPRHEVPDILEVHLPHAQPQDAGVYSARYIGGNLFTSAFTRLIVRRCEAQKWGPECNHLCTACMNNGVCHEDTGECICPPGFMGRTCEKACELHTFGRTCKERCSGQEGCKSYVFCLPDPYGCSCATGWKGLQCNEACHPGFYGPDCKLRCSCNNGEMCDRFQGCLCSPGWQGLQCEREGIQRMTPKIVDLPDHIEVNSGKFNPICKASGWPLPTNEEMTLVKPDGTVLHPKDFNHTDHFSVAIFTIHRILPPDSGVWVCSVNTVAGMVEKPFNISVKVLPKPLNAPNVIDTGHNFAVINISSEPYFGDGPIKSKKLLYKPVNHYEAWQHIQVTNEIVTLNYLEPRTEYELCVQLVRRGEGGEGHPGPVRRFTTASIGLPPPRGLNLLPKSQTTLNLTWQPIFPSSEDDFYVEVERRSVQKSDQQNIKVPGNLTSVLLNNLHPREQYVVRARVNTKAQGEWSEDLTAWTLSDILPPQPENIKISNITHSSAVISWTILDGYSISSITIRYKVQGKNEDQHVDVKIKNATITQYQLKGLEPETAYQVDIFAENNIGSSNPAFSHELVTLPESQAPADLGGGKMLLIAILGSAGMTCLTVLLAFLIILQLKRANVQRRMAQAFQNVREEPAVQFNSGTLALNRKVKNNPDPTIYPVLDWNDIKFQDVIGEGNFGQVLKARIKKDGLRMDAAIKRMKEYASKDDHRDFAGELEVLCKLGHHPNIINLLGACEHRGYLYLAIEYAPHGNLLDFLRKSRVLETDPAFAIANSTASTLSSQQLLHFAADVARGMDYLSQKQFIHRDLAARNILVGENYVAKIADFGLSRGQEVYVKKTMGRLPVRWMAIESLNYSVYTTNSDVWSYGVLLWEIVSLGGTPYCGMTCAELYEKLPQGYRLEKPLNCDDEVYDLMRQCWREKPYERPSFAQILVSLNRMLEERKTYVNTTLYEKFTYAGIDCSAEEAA
Chain of Tyrosine-protein kinase CSK (P41240 whole entry): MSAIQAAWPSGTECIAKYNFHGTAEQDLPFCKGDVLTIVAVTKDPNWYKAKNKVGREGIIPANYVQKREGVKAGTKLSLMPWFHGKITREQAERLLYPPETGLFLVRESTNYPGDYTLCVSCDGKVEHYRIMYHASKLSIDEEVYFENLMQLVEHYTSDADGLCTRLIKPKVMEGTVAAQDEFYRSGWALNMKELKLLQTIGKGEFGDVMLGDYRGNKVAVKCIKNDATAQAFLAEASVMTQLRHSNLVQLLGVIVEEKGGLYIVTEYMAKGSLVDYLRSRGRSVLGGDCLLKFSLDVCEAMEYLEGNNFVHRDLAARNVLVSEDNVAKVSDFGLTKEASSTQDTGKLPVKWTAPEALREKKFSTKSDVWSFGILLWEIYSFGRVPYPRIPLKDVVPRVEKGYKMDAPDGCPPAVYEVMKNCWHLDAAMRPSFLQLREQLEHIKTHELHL

Q: What does the source list for `CC[C@@H]1C(=O)N(C)c2cnc(Nc3ccc(C(=O)NC4CCN(C)CC4)cc3OC)nc2N1C1CCCC1` [BI-2536]?
A: inhibition (Mus musculus): Active; T/C (A549): 14%; IC50 [1]: > 10 µM; IC50 [2]: > 10 µM; Activity (HeLa [3]): Active; Activity [4]: Non-Toxic; IC50 [5]: > 10 µM; IC50 [6]: > 10 µM; Activity (TERT-RPE1 [7]): ~70%; IC50 [8]: 2.41 µM; Activity (TERT-RPE1 [9]): ~30%; IC50 [10]: > 10 µM; Activity (HeLa [11]): Active; EC50 (BRO melanoma cell line): 0.002 µM; IC50 [12]: > 10 µM; IC50 [13]: > 10 µM; Activity (NCI-H460 [14]): Active; Activity (HeLa [15]): Active; IC50 [16]: > 10 µM; Activity (HeLa [17]): Active; IC50 (Ephrin type-A receptor 3): > 10 µM; IC50 [18]: 9.91 µM; IC50 [19]: > 10 µM; Activity (HeLa [20]): inactive; Activity (HeLa [21]): Active; Activity [22]: Non-Toxic; IC50 [23]: > 10 µM; T/C (HCT-116 [24]): 16%; Activity (HeLa [25]): inactive; Activity (NCI-H460 [26]): Active; Activity (HeLa [27]): Active; Activity (NCI-H460 [28]): Active; Activity (HeLa [29]): Active; IC50 [30]: > 10 µM; T/C (BXPC-3): 5%; Activity (HCT-116 [31]): Active; Activity (HeLa [32]): Active; Activity (HeLa [33]): Active; IC50 [34]: > 10 µM; IC50 (Angiopoietin-1 receptor): 6.55 µM; Activity (HeLa [35]): Active; Activity (HeLa [36]): Active; Activity (HCT-116 [37]): Active; IC50 [38]: > 10 µM; IC50 [39]: > 10 µM; Activity (NCI-H460 [40]): Active; IC50 [41]: > 10 µM; Activity (HCT-116 [42]): 100%; Activity (HeLa [43]): inactive; Activity (HeLa [44]): Active; IC50 [45]: > 10 µM; IC50 [46]: > 10 µM; IC50 [47]: > 10 µM

Q: What does the source list for `COc1cc(OC)c(/C=C/S(=O)(=O)Cc2ccc(OC)c(NCC(=O)O)c2)c(OC)c1` [RIGOSERTIB]?
A: Activity (HeLa [48]): Active; Activity (HeLa [49]): inactive; EC50 (HeLa S3): 0.045 µM; Activity (HeLa [50]): Active; Activity (HeLa [51]): Active
